From patent US20240409585A1, “MACROCYCLIC IMMUNOMODULATORS” (priority 2021, published 2024)
Bridge positions count the residues as written; N and C are the ends. Square brackets hold non-standard residues; d marks the D form. Peptide text beside a SMILES is read from it. * marks the point of attachment. ξ: configuration not given here. Trp(5-CN) = N#Cc1ccc2[nH]cc(C[C@H](N)C(=O)O)c2c1; Phe(4-COOH) = N[C@@H](Cc1ccc(C(=O)O)cc1)C(=O)O; dPhe(3,4-F2) = N[C@H](Cc1ccc(F)c(F)c1)C(=O)O; Phe(4-CH2NH2) = NCc1ccc(C[C@H](N)C(=O)O)cc1; Bip = N[C@@H](Cc1ccc(-c2ccccc2)cc1)C(=O)O; Phe(3-CN) = N#Cc1cccc(C[C@H](N)C(=O)O)c1; Phe(3-OMe) = COc1cccc(C[C@H](N)C(=O)O)c1; Phe(3-Me) = Cc1cccc(C[C@H](N)C(=O)O)c1; Bta = N[C@@H](Cc1csc2ccccc12)C(=O)O; Val(3-OH) = CC(C)(O)[C@H](N)C(=O)O; 4Pal = N[C@@H](Cc1ccncc1)C(=O)O; 2Thi = N[C@@H](Cc1cccs1)C(=O)O; Cha = N[C@@H](CC1CCCCC1)C(=O)O; Cit = NC(=O)NCCC[C@H](N)C(=O)O; Ile(3ξ) = CCC(C)[C@H](N)C(=O)O; Thr(3ξ) = CC(O)[C@H](N)C(=O)O; Carboxymethyl = O=C(O)C*; NMeA = CN[C@@H](C)C(=O)O; Nle = CCCC[C@H](N)C(=O)O; Orn = NCCC[C@H](N)C(=O)O; Pra = C#CC[C@H](N)C(=O)O; Dab = NCC[C@H](N)C(=O)O

target: T1, PE-labeled human PD-L1-Ig binding to Jurkat cell line over-expressing human PD-1 (Jurkat-PD-1) (Homo sapiens, UniProt Q15116); assay: Jurkat-PD-1 Cell Binding High-Content Screening Assay (CBA): Method 1; details: Jurkat-hPD-1 cells, PE-labeled PD-L1-Ig 20 nM final; read-out: Jurkat HPDL1 PD1 IC50 (uM) (Method 1)
T1 construct: expressed in transfected cells; host or cells: Jurkat
T1 sequence (Q15116 25-288): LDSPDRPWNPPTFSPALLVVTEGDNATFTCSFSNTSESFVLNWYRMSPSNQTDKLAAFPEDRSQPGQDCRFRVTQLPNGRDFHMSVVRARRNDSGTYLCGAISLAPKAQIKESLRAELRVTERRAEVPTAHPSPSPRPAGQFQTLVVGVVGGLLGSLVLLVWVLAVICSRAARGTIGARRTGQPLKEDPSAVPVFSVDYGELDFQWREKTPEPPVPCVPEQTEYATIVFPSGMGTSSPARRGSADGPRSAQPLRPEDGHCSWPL

Row | Compound | IC50 [µM]
1 | CC(C)C[C@@H]1NC(=O)[C@H](CCCNC(=N)N)NC(=O)[C@H](Cc2csc3ccccc23)NC(=O)[C@H](C)N(C)C(=O)[C@H](CCCN)NC(=O)[C@H](Cc2ccc(-c3ccccc3)cc2)NC(=O)[C@H](C(C)C)NC(=O)[C@H](Cc2c[nH]c3ccccc23)NC(=O)[C@H](CC(=O)O)NC(=O)[C@H](Cc2ccc(O)cc2)NC(=O)[C@H](Cc2ccccc2)NC(=O)CSC[C@@H](C(=O)N[C@@H](C)C(N)=O)NC(=O)[C@H]([C@@H](C)O)NC(=O)[C@H](C(C)C)NC1=O [Compound 1124] ({CH2CO}-FYDWV[Bip][Orn][NMeA][Bta]RLVTCA-NH2; thioether N-14) | 0.69
2 | CC(C)C[C@@H]1NC(=O)[C@H](Cc2c[nH]c3ccccc23)NC(=O)[C@H](CC(=O)O)NC(=O)[C@H](Cc2ccc(CN)cc2)NC(=O)[C@H](Cc2ccccc2)NC(=O)CSC[C@@H](C(=O)N[C@@H](C)C(N)=O)NC(=O)[C@H](CO)NC(=O)[C@H](C(C)C)NC(=O)[C@H](CC(C)C)NC(=O)[C@H](CC(N)=O)NC(=O)[C@@H](C)NC(=O)[C@H](C)N(C)C(=O)[C@H](C(C)C)NC(=O)[C@H](Cc2ccc(-c3ccccc3)cc2)NC1=O [Compound 1750] ({CH2CO}-F[Phe(4-CH2NH2)]DWL[Bip]V[NMeA][dA]NLVSCA-NH2; thioether N-14) | 0.02
3 | CC(C)C[C@@H]1NC(=O)[C@H](Cc2c[nH]c3ccccc23)NC(=O)[C@H](CC(=O)O)NC(=O)[C@H](Cc2cccs2)NC(=O)[C@H](Cc2ccccc2)NC(=O)CSC[C@@H](C(=O)N[C@@H](C)C(N)=O)NC(=O)[C@H](CO)NC(=O)[C@H](C(C)C)NC(=O)[C@H](CC(C)C)NC(=O)[C@H](CC(N)=O)NC(=O)[C@@H](C)NC(=O)[C@H](C)N(C)C(=O)[C@H](C(C)C)NC(=O)[C@H](Cc2ccc(-c3ccccc3)cc2)NC1=O [Compound 1725] ({CH2CO}-F[2Thi]DWL[Bip]V[NMeA][dA]NLVSCA-NH2; thioether N-14) | 0.01
4 | CCCC[C@@H]1NC(=O)[C@H](Cc2c[nH]c3ccccc23)NC(=O)[C@H](CC(=O)O)NC(=O)[C@H](Cc2ccc(OCC(=O)O)cc2)NC(=O)[C@H](C(C)O)NC(=O)CSC[C@@H](C(=O)N[C@@H](CC(N)=O)C(=O)O)NC(=O)[C@H](CO)NC(=O)[C@H](C(C)C)NC(=O)[C@H](CC(C)C)NC(=O)[C@H](CCN)NC(=O)[C@@H](CC(C)C)NC(=O)[C@H](C)N(C)C(=O)[C@H](C(C)CC)NC(=O)[C@H](Cc2ccc(-c3ccccc3)cc2)NC1=O (stereo partly drawn) [Compound 2221] ({CH2CO}-[Thr(3ξ)]Y(Carboxymethyl)DW[Nle][Bip][Ile(3ξ)][NMeA][dL][Dab]LVSCN-OH; thioether N-14) | 0.06
5 | CC(C)C[C@@H]1NC(=O)[C@H](CCCNC(=N)N)NC(=O)[C@@H](Cc2ccc(F)c(F)c2)NC(=O)[C@H](C)N(C)C(=O)[C@H](CCCNC(=N)N)NC(=O)[C@H](Cc2ccc(-c3ccccc3)cc2)NC(=O)[C@H](C(C)C)NC(=O)[C@H](Cc2c[nH]c3ccccc23)NC(=O)[C@H](CC(=O)O)NC(=O)[C@H](Cc2ccc(O)cc2)NC(=O)[C@H](Cc2ccccc2)NC(=O)CSC[C@@H](C(=O)N[C@@H](C)C(N)=O)NC(=O)[C@H]([C@@H](C)O)NC(=O)[C@H](C(C)C)NC1=O [Compound 1103] ({CH2CO}-FYDWV[Bip]R[NMeA][dPhe(3,4-F2)]RLVTCA-NH2; thioether N-14) | 0.69
6 | C#CC[C@H](NC(=O)CNC(=O)[C@@H]1CSCC(=O)N[C@@H]([C@@H](C)O)C(=O)N[C@@H](Cc2ccc(OCC(=O)O)cc2)C(=O)N[C@@H](CC(=O)O)C(=O)N[C@@H](Cc2cccc(C)c2)C(=O)N[C@@H](Cc2ccc(OCC(=O)O)cc2)C(=O)N[C@@H](Cc2ccc(-c3ccccc3)cc2)C(=O)N[C@@H](Cc2ccc(OCC(=O)O)cc2)C(=O)N(C)[C@@H](C)C(=O)N[C@H](CC(C)C)C(=O)N[C@@H](CCN)C(=O)N[C@@H](CC2CCCCC2)C(=O)N[C@@H](C(C)(C)O)C(=O)N[C@@H](CCC(=O)O)C(=O)N1)C(=O)O [Compound 1938] ({CH2CO}-TY(Carboxymethyl)D[Phe(3-Me)]Y(Carboxymethyl)[Bip]Y(Carboxymethyl)[NMeA][dL][Dab][Cha][Val(3-OH)]ECG[Pra]-OH; thioether N-14) | 0.34
7 | CC(C)C[C@@H]1NC(=O)[C@H](CCN)NC(=O)[C@@H](CC(C)C)NC(=O)[C@H](C)N(C)C(=O)[C@H](CCCNC(N)=O)NC(=O)[C@H](Cc2ccc(-c3ccccc3)cc2)NC(=O)[C@H](C(C)C)NC(=O)[C@H](Cc2c[nH]c3ccccc23)NC(=O)[C@H](CC(=O)O)NC(=O)[C@H](Cc2ccc(O)cc2)NC(=O)[C@H](CCN)NC(=O)CSC[C@@H](C(=O)N[C@@H](C)C(N)=O)NC(=O)[C@H]([C@@H](C)O)NC(=O)[C@H](C(C)C)NC1=O [Compound 1346] ({CH2CO}-[Dab]YDWV[Bip][Cit][NMeA][dL][Dab]LVTCA-NH2; thioether N-14) | 0.07
8 | CC(C)C[C@@H]1NC(=O)[C@H](CCCNC(=N)N)NC(=O)[C@H](Cc2csc3ccccc23)NC(=O)[C@H](C)N(C)C(=O)[C@H](CCCNC(=N)N)NC(=O)[C@H](Cc2ccc(-c3ccccc3)cc2)NC(=O)[C@H](C(C)C)NC(=O)[C@H](Cc2c[nH]c3ccccc23)NC(=O)[C@H](CC(=O)O)NC(=O)[C@H](Cc2ccc(O)cc2)NC(=O)[C@H](Cc2cnc[nH]2)NC(=O)CSC[C@@H](C(=O)N[C@@H](C)C(N)=O)NC(=O)[C@H](CO)NC(=O)[C@H](C(C)C)NC1=O [Compound 1040] ({CH2CO}-HYDWV[Bip]R[NMeA][Bta]RLVSCA-NH2; thioether N-14) | 0.17
9 | CC(C)C[C@H]1NC(=O)[C@H](C)N(C)C(=O)[C@H](CCCNC(N)=O)NC(=O)[C@H](Cc2ccc(-c3ccccc3)cc2)NC(=O)[C@H](C(C)C)NC(=O)[C@H](Cc2c[nH]c3ccccc23)NC(=O)[C@H](CC(=O)O)NC(=O)[C@H](Cc2ccc(O)cc2)NC(=O)[C@H](CC(N)=O)NC(=O)CSC[C@@H](C(=O)N[C@@H](C)C(N)=O)NC(=O)[C@H]([C@@H](C)O)NC(=O)[C@H](C(C)C)NC(=O)[C@H](CC2CCCCC2)NC(=O)[C@H](CCN)NC1=O [Compound 1287] ({CH2CO}-NYDWV[Bip][Cit][NMeA][dL][Dab][Cha]VTCA-NH2; thioether N-14) | 0.01
10 | CC(C)C[C@@H]1NC(=O)[C@H](CCCNC(=N)N)NC(=O)[C@@H](CC(C)C)NC(=O)[C@H](C)N(C)C(=O)[C@H](CCCNC(=N)N)NC(=O)[C@H](Cc2ccc(-c3ccccc3)cc2)NC(=O)[C@H](C(C)C)NC(=O)[C@H](Cc2c[nH]c3ccccc23)NC(=O)[C@H](CC(=O)O)NC(=O)[C@H](Cc2ccc(O)cc2)NC(=O)[C@H](CCC(N)=O)NC(=O)CSC[C@@H](C(=O)N[C@@H](C)C(N)=O)NC(=O)[C@H]([C@@H](C)O)NC(=O)[C@H](C(C)C)NC1=O [Compound 1046] ({CH2CO}-QYDWV[Bip]R[NMeA][dL]RLVTCA-NH2; thioether N-14) | 0.1
11 | Cc1cccc(C[C@@H]2NC(=O)[C@H](CC(=O)O)NC(=O)[C@H](Cc3ccc(O)cc3)NC(=O)[C@H](CC(N)=O)NC(=O)CSC[C@@H](C(=O)N[C@@H](C)C(N)=O)NC(=O)[C@H]([C@@H](C)O)NC(=O)[C@H](C(C)C)NC(=O)[C@H](CC(C)C)NC(=O)[C@H](CCCNC(=N)N)NC(=O)[C@@H](CC(C)C)NC(=O)[C@H](C)N(C)C(=O)[C@H](C(C)C)NC(=O)[C@H](Cc3ccc(-c4ccccc4)cc3)NC(=O)[C@H](C(C)C)NC2=O)c1 [Compound 1273] ({CH2CO}-NYD[Phe(3-Me)]V[Bip]V[NMeA][dL]RLVTCA-NH2; thioether N-14) | 0.01
12 | CC(C)C[C@@H]1NC(=O)[C@H](CCN)NC(=O)[C@@H](CC(C)C)NC(=O)[C@H](C)N(C)C(=O)[C@H](CCCNC(N)=O)NC(=O)[C@H](Cc2ccc(-c3ccccc3)cc2)NC(=O)[C@H](C(C)C)NC(=O)[C@H](Cc2c[nH]c3ccccc23)NC(=O)[C@H](CC(=O)O)NC(=O)[C@H](Cc2ccc(O)cc2)NC(=O)[C@H](CCC(N)=O)NC(=O)CSC[C@@H](C(=O)N[C@@H](C)C(N)=O)NC(=O)[C@H]([C@@H](C)O)NC(=O)[C@H](C(C)C)NC1=O [Compound 1357] ({CH2CO}-QYDWV[Bip][Cit][NMeA][dL][Dab]LVTCA-NH2; thioether N-14) | 0.06
13 | CCC(C)[C@@H]1NC(=O)[C@H](Cc2ccc(-c3ccccc3)cc2)NC(=O)[C@H](CC(C)C)NC(=O)[C@H](Cc2c[nH]c3ccccc23)NC(=O)[C@H](CC(=O)O)NC(=O)[C@H](Cc2ccc(C(=O)O)cc2)NC(=O)[C@H](Cc2ccc(OCC(=O)O)cc2)NC(=O)CSC[C@@H](C(=O)N[C@@H](CC(N)=O)C(N)=O)NC(=O)[C@H](CCC(N)=O)NC(=O)[C@H](C(C)C)NC(=O)[C@H](CC2CCCCC2)NC(=O)[C@H](CCN)NC(=O)[C@@H](CC(C)C)NC(=O)[C@H](C)N(C)C1=O (stereo partly drawn) [Compound 1925] ({CH2CO}-Y(Carboxymethyl)[Phe(4-COOH)]DWL[Bip][Ile(3ξ)][NMeA][dL][Dab][Cha]VQCN-NH2; thioether N-14) | 0.03
14 | CC(C)C[C@@H]1NC(=O)[C@H](CCN)NC(=O)[C@@H](CC(C)C)NC(=O)[C@H](C)N(C)C(=O)[C@H](CCCNC(=N)N)NC(=O)[C@H](Cc2ccc(-c3ccccc3)cc2)NC(=O)[C@H](C(C)C)NC(=O)[C@H](Cc2c[nH]c3ccc(C#N)cc23)NC(=O)[C@H](CC(=O)O)NC(=O)[C@H](Cc2ccc(O)cc2)NC(=O)[C@H](Cc2ccccc2)NC(=O)CSC[C@@H](C(=O)N[C@@H](C)C(N)=O)NC(=O)[C@H]([C@@H](C)O)NC(=O)[C@H](C(C)C)NC1=O [Compound 1203] ({CH2CO}-FYD[Trp(5-CN)]V[Bip]R[NMeA][dL][Dab]LVTCA-NH2; thioether N-14) | 0.1
15 | COc1cccc(C[C@@H]2NC(=O)[C@H](CC(=O)O)NC(=O)[C@H](Cc3cccc(C#N)c3)NC(=O)[C@H](Cc3ccncc3)NC(=O)CSC[C@@H](C(=O)N[C@@H](C)C(N)=O)NC(=O)[C@@H](CO)NC(=O)[C@H](C(C)C)NC(=O)[C@H](CC(C)C)NC(=O)[C@H](CC(N)=O)NC(=O)[C@@H](C)NC(=O)[C@H](C)N(C)C(=O)[C@H](C(C)C)NC(=O)[C@H](Cc3ccc(-c4ccccc4)cc3)NC(=O)[C@@H](CC(C)C)NC2=O)c1 [Compound 1462] ({CH2CO}-[4Pal][Phe(3-CN)]D[Phe(3-OMe)][dL][Bip]V[NMeA][dA]NLV[dS]CA-NH2; thioether N-14) | 0.01
